Data taken from paper PMC5295395, “Inhibition of PlexA1-mediated brain tumor growth and tumor-associated angiogenesis using a transmembrane domain targeting peptide” (Oncotarget, 2016).

Key:
NRP1 TMD = assay: surface plasmon resonance (SPR, Biacore) with NRP1 TMD; format: binding; conditions: Biacore 2000, 20°C, streptavidin CM5 chip, 10 mM HEPES pH 7.4, 150 mM NaCl, 0.005% P20, 3 mM LDAO, flow 5 μl/min
Experimental: A surface plasmon resonance (SPR, Biacore) analysis was also conducted with a synthetic biotinylated PlexA1 peptide immobilized on the chip. […] Due to the high hydrophobic nature and difficulty to produce TMD peptides we only performed this experiment with TMD peptides for which we had experience of successful synthesis. […]
assigned to the “highest Plxna1” group and conversely (Abcam, ab32960-100) was added to the sections in those with a Plxna1 expression below the median to the blocking solution at 4°C overnight at a dilution of 1/100.
“lowest Plxna1” group. […]
For the “TCGA dataset” [50, 51], data were The tissue was rinsed with PBS (3 × 5 minutes) and downloaded from the TCGA data portal (https://tcga- then the endogenous peroxidases were blocked with 1% data.nci.nih.gov/tcga/tcgaHome2.jsp; NCI, USA). RMA H2O2 solution (Sigma, #H1009) in methanol solution normalized gene expression profiles measured with during 20 minutes. […]
Factor (recombinant human) 0.1 ng/ml, Basic Fibroblast RNA was treated with DNase I (Invitrogen) and reverse Growth Factor (recombinant human) 1 ng/ml, Heparin 90 transcribed using the High Capacity cDNA RT Kit μg/ml, Hydrocortisone 1 μg / ml. […] Samples were analyzed using […]

[1] = test system: tumor-associated blood vessels (CD31); assay: CD31 immunostaining of U118MG-Luc xenograft tumor sections; format: in vivo, mouse; conditions: vs control; p = 0.0436, Mann Whitney
Experimental: To address the biological consequences of MTP-PlexA1-mediated inhibition of PlexA1 we used the U118MG-Luc glioma cell line genetically engineered to express the luciferase reporter gene. […] Cells were then grafted subcutaneously and tumor growth was monitored every 5 days for a total period of 20 days. […] The quantitative analysis of the cumulated luminescent signal acquired all along the protocol confirmed the strong reduction of tumor development translating into a marked 75% reduction of the averaged luminescent signal at the end point (Figure 6C). […] In order to clarify the mechanism by which MTP-PlexA1 is exerting tumor growth inhibition we collected tumors and analyzed them histologically.
(B) Representative photographs illustrating the kinetic of tumor growth over 20 days in the two experimental groups. […] (D) Waterfall plot of best response representing the percent change in tumor volume of individual treated animals (grey bars, n = 10) compared to the average tumor volume increased determined in the control group (dark bars, n = 10). […] (F) Representative microphotographs and related quantification of PH3 positive cells in tumor slices (G) Representative microphotographs and related quantification of CD31 positive regions in tumor slices (% CD31 per μm² of tumors).

TLPAIVGIGGGGGLLLLVIVAVLIAYKRK [MTP-PlexA1, synthetic transmembrane peptide mimicking the TMD of PlexA1]
interaction of immobilized biotinylated PlexA1 TMD peptide with NRP1 (NRP1 TMD): significantly interacted with NRP1 | reduction of tumor-associated blood vessel density (CD31) [1]: 11.4%
